# Measurements reported in PubChem BioAssay (NCI).
# “And” between values parts separate entries of the source, which are not always exact repeats. Equal entries are not always repeated.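 Cells were grown in 96-well plates and exposed to each compound for 48 hours at five concentrations; endpoints were interpolated linearly between bracketing concentrations, or set to the highest concentration if not reached. Here, GI50 denotes the concentration required for 50% inhibition of growth. TGI marks complete inhibition of growth.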
# Tests used:
# Test in all cases: growth of human tumour cells (NCI), 48 h
# [1] = tested on: UO-31 renal
# [2] = tested on: K-562 leukemia
# [3] = tested on: BT-549 breast
# [4] = tested on: PC-3 prostate
# [5] = tested on: A498 renal
# [6] = tested on: IGROV1 ovarian
# [7] = tested on: UACC-257 melanoma
# [8] = tested on: OVCAR-4 ovarian
Compound,TGI [1],TGI [2],TGI [3],TGI [4],TGI [5],TGI [6],TGI [7],TGI [8],GI50 [1],GI50 [2],GI50 [3],GI50 [4],GI50 [5],GI50 [6],GI50 [7],GI50 [8]
CC(=O)C1=C(O)/C(=C\c2ccco2)OC1=O,> 10 µM,> 10 µM,> 10 µM,> 10 µM,> 10 µM,> 10 µM,> 10 µM,> 10 µM,–,–,–,–,–,–,–,–
O=C(Nc1ccccc1)Nc1ccccc1CNc1nc(Nc2ccc(OCCN3CCCC3)cc2)ncc1Cl,10.3 µM,> 50 µM,11.4 µM,14 µM,8.54 µM,15.4 µM,18.3 µM,7.84 µM,2.57 µM,1.67 µM,5.05 µM,6.06 µM,1.51 µM,7.02 µM,7.22 µM,1.81 µM
CN1c2ccccc2C(=O)Nc2cnc(Cl)nc21,> 100 µM,> 100 µM,–,> 100 µM,> 100 µM,> 100 µM,> 100 µM,> 100 µM,–,–,–,–,–,–,–,–
CCCCCCN(CCCCCC)CC(O)c1cccc2ccc(Cl)cc12 (centres undefined),19.7 µM,20.9 µM,28 µM,25 µM,22.3 µM,23.8 µM,28.7 µM,33 µM,4.85 µM,4.87 µM,14.1 µM,9.59 µM,10.4 µM,10.3 µM,12.9 µM,7.44 µM
C=C(C)[C@]12CC(C)C34OC(/C=C\C=C\CCCCCCCCC)(O[C@@H]1[C@@H]3[C@@H]1O[C@]1(CO)[C@@H](O)[C@]1(O)C(=O)C(C)=C[C@@H]41)O2 (some centres undefined),24.8 µM,> 35 µM,18.5 µM,12.9 µM,–,30 µM,28.5 µM,22.6 µM,–,< 0.0001 µM,–,< 0.0001 µM,–,–,–,–
CC(C)(C)NCCC(O)c1cc(C(F)(F)F)nc2c(C(F)(F)F)cccc12 (centres undefined),1.34 µM,19.9 µM,23.2 µM,20.6 µM,28.3 µM,23.8 µM,26.4 µM,27.1 µM,–,–,–,–,–,–,–,–
COc1cc(OC)cc(N2CCN(C(=O)Nc3nc4cc(F)ccc4nc3OC)CC2)c1,38.9 µM and 43.3 µM,> 100 µM,2.49 µM and 2.33 µM and 0.498 µM,40.7 µM and 22.9 µM,–,32.3 µM and 39.5 µM,73.4 µM and 56.8 µM,84.8 µM and > 100 µM,0.0681 µM and 0.0692 µM and 0.0336 µM,0.0184 µM and 0.0375 µM and 0.0304 µM,0.0345 µM and 0.0458 µM and 0.0335 µM,0.116 µM and 0.0312 µM and 0.033 µM,< 0.0164 µM and 0.0126 µM,0.0441 µM and 0.0988 µM and 0.062 µM,20.1 µM and 12.7 µM,–
CCCCCCN1C(=O)CN=C1Nc1ccc2cc3ccc(NC4=NCC(=O)N4CCCCCC)cc3nc2c1,2.54 µM,4.93 µM,17.6 µM,9 µM,32.6 µM,4.28 µM,9.74 µM,4.01 µM,1.24 µM,1.91 µM,3.46 µM,2.54 µM,15.9 µM,1.85 µM,3.34 µM,1.66 µM
Cc1csc(Nc2nc(-c3cccc(Cl)c3)nc(C(Cl)(Cl)Cl)n2)n1,15.7 µM,> 33.3 µM,> 33.3 µM,7.85 µM,–,> 33.3 µM,28 µM,> 33.3 µM,2.38 µM,7.41 µM,> 33.3 µM,1.27 µM,–,15.7 µM,3.53 µM,10.7 µM
O=C(NO)C(O)C(O)C(O)C(O)CO (centres undefined),> 100 µM,> 100 µM,> 100 µM,> 100 µM,> 100 µM,> 100 µM and 80.2 µM,> 100 µM,> 100 µM,> 100 µM,> 87.6 µM and 47.1 µM,> 100 µM,> 100 µM,> 100 µM,> 100 µM and 23.3 µM,> 100 µM,> 100 µM
O=[N+]([O-])O.[NH-]C1CCCCC1[NH-].[NH-]C1CCCCC1[NH-].[NH-]C1CCCCC1[NH-].[OH-].[OH-].[OH-].[Pt+4].[Pt+4].[Pt+4] (centres undefined),15.5 µM,> 100 µM,> 62.5 µM,40.9 µM,35.1 µM,19.4 µM,20.4 µM,> 100 µM,0.373 µM,0.452 µM,3.02 µM,0.756 µM,0.278 µM,0.258 µM,1.27 µM,–
CCOC(=O)Cc1csc(NC(=O)C(OC(=O)c2ccc(N)cc2)c2ccccc2)n1 (centres undefined),> 100 µM,> 100 µM,> 100 µM,> 100 µM,> 100 µM,> 100 µM,> 100 µM,> 100 µM,54.4 µM,31.6 µM,40.3 µM,50.7 µM,72.1 µM,52.8 µM,40.5 µM,32.7 µM
CCSc1nc(N)c2cnn(C)c2n1,> 100 µM,> 100 µM,> 100 µM,> 100 µM,21.5 µM,> 100 µM,> 100 µM,> 100 µM,38.3 µM,54.5 µM,42.9 µM,38.9 µM,3.26 µM,53.5 µM,67.1 µM,81.2 µM
COC(=O)C1=C(O)C(C(=O)OC)[C@@]2(O)[C@@H](C(=O)OC)C(c3ccc(OC(=O)C(CC(C)C)NC(C)=O)cc3)C[C@@H]1[C@@H]2C(=O)OC (some centres undefined),> 100 µM,> 100 µM,> 100 µM,> 100 µM,–,> 100 µM,> 100 µM,–,> 100 µM,95 µM,33.6 µM,33.9 µM,–,> 100 µM,> 100 µM,–
CCOC(=O)C1=C(c2ccccc2)N(Cc2ccccc2)C2(O)C=CC(=O)C3C(=O)N(c4ccccc4)C(=O)C132 (centres undefined),–,8.79 µM,3.58 µM,9.32 µM,3.12 µM,–,8.06 µM,10.8 µM,–,2.2 µM,1.76 µM,2.67 µM,1.62 µM,–,2.82 µM,2.94 µM
Cc1cc(N)c2ccccc2[n+]1CCCCCCCCCC[n+]1c(C)cc(N)c2ccccc21,> 50 µM and 12.9 µM and 14 µM,2.22 µM and 3.84 µM and 12.4 µM,1.57 µM and 3.29 µM and 5.32 µM,4.63 µM and 15.8 µM and 11.1 µM,–,–,–,–,0.954 µM and 2.84 µM,0.137 µM,0.304 µM and 1.5 µM,0.245 µM and 0.744 µM,0.0691 µM,0.538 µM and 2.17 µM,–,–
COc1ccc(-n2nc(C)c3c2N(C)C2(C)C[C@@H]4C3(C)[C@@H]3CC4(C2)N(C)c2c(c(C)nn2-c2ccc(OC)cc2)[C@H]3C)cc1 (some centres undefined),–,–,> 100 µM,–,26.9 µM,> 100 µM,–,> 100 µM,–,–,4.17 µM,–,3.95 µM,19.5 µM,–,5.95 µM
O=C(CN=Cc1cccs1)CSC(c1ccccc1)c1ccccc1,–,54.1 µM,40 µM,47.9 µM,45.8 µM,–,48 µM,> 100 µM,–,15.8 µM,18.4 µM,17.5 µM,16.6 µM,–,22.1 µM,26.5 µM
O=C(CC(C(=O)O)N1CCOCC1)c1ccccc1 (centres undefined),–,49.1 µM,33.5 µM,36 µM,63 µM,63.2 µM,27.2 µM,43.2 µM,–,–,–,–,–,–,–,–
C[C@H](NC(=O)CCC(F)(F)F)C(=O)N[C@@H]1C(=O)N(CCO)c2ncccc2-c2ccccc21,> 100 µM,> 100 µM,> 100 µM,> 100 µM,> 100 µM,> 100 µM,–,> 100 µM,> 100 µM,> 100 µM,> 100 µM,> 100 µM,> 100 µM,> 100 µM,–,> 100 µM
CC(=O)Nc1ccc(-n2cnc3cc(-c4ccc(OCCN5CCCCC5)cc4)ccc32)cc1,7.06 µM,> 33.3 µM,9.77 µM,9.83 µM,–,11.5 µM,12 µM,11.7 µM,2.33 µM,0.944 µM,4.88 µM,3.91 µM,–,4.93 µM,5.9 µM,4.85 µM
COc1ncnc2c(-c3ccco3)cn(COCc3ccccc3)c12,–,> 50 µM,–,> 50 µM,> 50 µM,> 50 µM,> 50 µM,> 50 µM,–,> 50 µM,–,3.5 µM,0.697 µM,> 50 µM,> 50 µM,> 50 µM
COc1cc(/C=C\c2cccnc2Nc2ccccc2)cc(OC)c1OC,72.8 µM,–,65.3 µM,75.1 µM,36.5 µM,> 100 µM,65.7 µM,> 100 µM,5.09 µM,–,14.3 µM,7.81 µM,2.64 µM,12.6 µM,8.52 µM,9.78 µM
CN1C(=O)C23CC4=CC=CC(O)C4N2C(=O)C1(CO)SS3 (centres undefined),2.03 µM,–,0.742 µM,0.387 µM,0.402 µM,0.297 µM,0.936 µM,0.524 µM,–,–,–,–,–,–,–,–
COc1ccc(N(Cc2cc(OC)c(OC)c(OC)c2)C2OC(=O)c3ccccc32)cc1 (centres undefined),> 100 µM,> 100 µM,> 100 µM,> 100 µM,1.61 µM,> 100 µM,–,> 100 µM,2.3 µM,0.346 µM,0.428 µM,0.666 µM,0.249 µM,1.07 µM,–,5.95 µM
O=C(Cc1nc2ccc([N+](=O)[O-])cc2[nH]c1=O)C(=O)Nc1cc(Cl)c(Cl)cc1Cl,> 100 µM,–,> 100 µM,> 100 µM,> 100 µM,> 100 µM,> 100 µM,> 100 µM,–,–,–,–,–,–,–,–
